Laboratory results: patent US4530791A, “β-Lactam antibiotics” (Kowa Co., Ltd., priority 1979, dated 1985)
Converted amounts (≈) assume the structure as drawn. Like-named read-outs stand apart in the source and are kept apart here.

Assays:
[1] = tested on: Escherichia coli EC-68 (PC ase IV); assay: Antibacterial spectrum (minimum inhibitory concentration); type: cell-based
Text: (§1) The antibacterial spectra against various microorganisms are shown in Table 2 in comparison with those of aminobenzyl penicillin (AB-Pc) and cefoxitin (CFX).

Hafnia alvei 978 = assay: as above; type: cell-based
Text: as §1

[2] = tested on: Staphylococcus aureus 209P JC-1; assay: as above; type: cell-based
Text: as §1

[3] = tested on: Pseudomonas aeruginosa A-3; assay: as above; type: cell-based; settings: A3
Text: as §1

Klebsiella 25 (PC ase) = assay: as above; type: cell-based
Text: as §1

[4] = tested on: Escherichia coli EC-1 (PC ase I); assay: as above; type: cell-based
Text: as §1

Serratia marcescens NHL = assay: as above; type: cell-based
Text: as §1

Proteus morganii 3168 = assay: as above; type: cell-based; settings: Morganella morganii
Text: as §1

[5] = tested on: Escherichia coli EC-59 (PC ase II); assay: as above; type: cell-based
Text: as §1

Enterobacter cloacae 977 = assay: as above; type: cell-based
Text: as §1

[6] = tested on: Enterobacter aerogenes 972; assay: as above; type: cell-based; settings: Klebsiella aerogenes
Text: as §1

[7] = tested on: Pseudomonas aeruginosa 10490; assay: as above; type: cell-based
Text: as §1

[8] = tested on: Staphylococcus epidermidis 1228; assay: as above; type: cell-based
Text: as §1

Citrobacter 24 (CS ase) [9] = assay: as above; type: cell-based
Text: as §1

Proteus inconstans Km115 = assay: as above; type: cell-based; settings: Providencia alcalifaciens
Text: as §1

Proteus vulgaris 874 = assay: as above; type: cell-based
Text: as §1

Klebsiella 32 (CS ase) = assay: as above; type: cell-based
Text: as §1

Citrobacter 1 (PC ase) = assay: as above; type: cell-based
Text: as §1

[10] = tested on: Excherichia coli NIHJ JC-2; assay: as above; type: cell-based
Text: as §1

Bacillus subtilis 6633 = assay: as above; type: cell-based
Text: as §1

[11] = tested on: Klebsiella pneumoniae 602; assay: as above; type: cell-based
Text: as §1

Pseudomonas putida 5121 = assay: as above; type: cell-based
Text: as §1

Proteus rettgari 13501 = assay: as above; type: cell-based
Text: as §1

[12] = target: β-lactamase enzyme penicillin amidohydrolase EC 3.5.2.6; assay: β-Lactamase-inhibitory activity; type: biochemical; settings: method of C. Reading and M. Cole
Procedure: When using as β-lactamase enzyme penicillin amidohydrolase EC 3.5.2.6 (Tokyo Chem. Syn. Co., Ltd.) derived from bacteria belonging to the genus Bacillus, the I50 value of the substance KA-6643-A was 0.5 ng/ml and that of the substance KA-6643-B was 12.8 ng/ml.
The I50 value was measured in accordance with the method of C. Reading and M. Cole [Antimicr. Agents and Chemoth. 11, 852-857 (1977)].

Citrobacter 24 (CS ase) [13] = assay: Antibacterial activity-improving action against β-lactam-resistant bacteria (disc, inhibiting zone); type: cell-based; settings: Medium including Citrobacter 24; AB-Pc 1 mg/ml, KA-6643-A or -B 10 γ/ml, alone or combined; 8 mm disc, 37° C., 18 hours
Procedure: (§2) In the Penassay agar (12 g of which was dissolved in 500 ml of distilled water, Kyoei Pharm. Co., Ltd.) were inoculated Escherichia coli EC-1 (PC ase) and citrobacter 24 (CS ase) which were β-lactamase-producing organisms, and 10 ml of the inoculated medium was flowed on a Petri dish of 9 cm in diameter and solidified to give a test medium.
(§3) In this agar medium were placed pulp discs of 8 mm in diameter into which was introduced with […] of aqueous solutions of antibiotics, respectively, followed by culturing at 37° C. for 18 hours and then measuring the diameter of an inhibiting zone around each disc.

[14] = tested on: Escherichia coli EC-1 (PC ase); assay: as above; type: cell-based; settings: Medium including E. coli EC-1; AB-Pc 1 mg/ml, KA-6643-A or -B 10 γ/ml, alone or combined; 8 mm disc, 37° C., 18 hours
Procedure: as §2, §3

Solubility in solvent = type: physicochemical
[15] = Stability: half-life period at different values of pH (ultraviolet absorption spectroscopy); type: physicochemical; settings: read-out: half-life period t1/2 (converted)
Text: (11) Stability: The half-life period at different values of pH are as follows: […]
pH 4.0-7.0: Mcllvaine's buffer solution (sodium phosphate-citric acid) pH 10.0: 0.1M sodium carbonate-sodium hydrogen carbonate buffer solution […]
Ultraviolet absorption spectroscopy
(9) Stability: The half-life period at different values of pH are as follows:
The solvent and measurement are the same as in the substance KA-6643-A.

[16] = cited from earlier work
[17] = organic solvents: acetone, chloroform, ethyl acetate, petroleum ether
[18] = mcilvaine's buffer, pH 4.0, Mcllvaine's buffer
[19] = mcilvaine's buffer, pH 6.0, Mcllvaine's buffer
[20] = mcilvaine's buffer, pH 7.0, Mcllvaine's buffer
[21] = pH 10.0, 0.1M sodium carbonate-sodium hydrogen carbonate buffer

Compound | MIC [1] | MIC (Hafnia alvei 978) | MIC [2] | MIC [3] | MIC (Klebsiella 25 (PC ase)) | MIC [4] | MIC (Serratia marcescens NHL) | MIC (Proteus morganii 3168) | MIC [5] | MIC (Enterobacter cloacae 977) | MIC [6] | MIC [7] | MIC [8] | MIC (Citrobacter 24 (CS ase) [9]) | MIC (Proteus inconstans Km115) | MIC (Proteus vulgaris 874) | MIC (Klebsiella 32 (CS ase)) | MIC (Citrobacter 1 (PC ase)) | MIC [10] | MIC (Bacillus subtilis 6633) | further results
CC1(C)S[C@@H]2[C@H](NC(=O)[C@H](N)c3ccccc3)C(=O)N2[C@H]1C(=O)O [AB-Pc, aminobenzyl penicillin, reference compound] | > 100 µg/mL | 50 µg/mL (≈ 143 µM) | 0.05 µg/mL (≈ 0.143 µM) | > 100 µg/mL | > 100 µg/mL | > 100 µg/mL | 50 µg/mL (≈ 143 µM) | > 100 µg/mL | > 100 µg/mL | 100 µg/mL (≈ 286 µM) | 6.25 µg/mL (≈ 17.9 µM) | 100 µg/mL (≈ 286 µM) | 0.78 µg/mL (≈ 2.23 µM) | > 100 µg/mL | 100 µg/mL (≈ 286 µM) | > 100 µg/mL | > 100 µg/mL | > 100 µg/mL | 6.25 µg/mL (≈ 17.9 µM) | ≤ 0.025 µg/mL | MIC [11]: 12.5 µg/mL (≈ 35.8 µM); MIC (Pseudomonas putida 5121): > 100 µg/mL; MIC (Proteus rettgari 13501): 0.2 µg/mL (≈ 0.572 µM)
CO[C@@]1(NC(=O)Cc2cccs2)C(=O)N2C(C(=O)O)=C(COC(N)=O)CS[C@@H]21 [CFX, cefoxitin, reference compound] | 6.25 µg/mL (≈ 14.6 µM) | 6.25 µg/mL (≈ 14.6 µM) | 1.56 µg/mL (≈ 3.65 µM) | > 100 µg/mL | 6.25 µg/mL (≈ 14.6 µM) | 3.13 µg/mL (≈ 7.32 µM) | 12.5 µg/mL (≈ 29.2 µM) | 6.25 µg/mL (≈ 14.6 µM) | 6.25 µg/mL (≈ 14.6 µM) | > 100 µg/mL | > 100 µg/mL | > 100 µg/mL | 1.56 µg/mL (≈ 3.65 µM) | > 100 µg/mL | 6.25 µg/mL (≈ 14.6 µM) | 6.25 µg/mL (≈ 14.6 µM) | > 100 µg/mL | > 100 µg/mL | 6.25 µg/mL (≈ 14.6 µM) | 1.56 µg/mL (≈ 3.65 µM) | MIC [11]: 0.78 µg/mL (≈ 1.82 µM); MIC (Pseudomonas putida 5121): > 100 µg/mL; MIC (Proteus rettgari 13501): 1.56 µg/mL (≈ 3.65 µM)
CC(=O)N/C=C/[S+]([O-])C1=C(C(=O)O)N2C(=O)C(C(C)OS(=O)(=O)O)C2C1 (stereo not shown) [MM-4550] | – | – | – | – | – | – | – | – | – | – | – | – | – | – | – | – | – | – | – | – | half-life period t1/2 ([16]; pH 4): 5.5 h; half-life period t1/2 ([16]; pH 6): 18 h; half-life period t1/2 ([16]; pH 7): 10.5 h; half-life period t1/2 ([16]; pH 7.8): 8.5 h; half-life period t1/2 ([16]; pH 10): 19 h

The remaining molecules from weak to strong by MIC [1], led by results:

MIC [1] | MIC (Hafnia alvei 978) | MIC [2] | MIC [3] | MIC (Klebsiella 25 (PC ase)) | MIC [4] | MIC (Serratia marcescens NHL) | MIC (Proteus morganii 3168) | MIC [5] | MIC (Enterobacter cloacae 977) | MIC [6] | MIC [7] | MIC [8] | MIC (Citrobacter 24 (CS ase) [9]) | MIC (Proteus inconstans Km115) | MIC (Proteus vulgaris 874) | MIC (Klebsiella 32 (CS ase)) | MIC (Citrobacter 1 (PC ase)) | MIC [10] | MIC (Bacillus subtilis 6633) | Compound | further results
3.13 µg/mL (≈ 7.41 µM) | 6.25 µg/mL (≈ 14.8 µM) | 6.25 µg/mL (≈ 14.8 µM) | 50 µg/mL (≈ 118 µM) | 6.25 µg/mL (≈ 14.8 µM) | 3.13 µg/mL (≈ 7.41 µM) | 6.25 µg/mL (≈ 14.8 µM) | 12.5 µg/mL (≈ 29.6 µM) | 1.56 µg/mL (≈ 3.69 µM) | 6.25 µg/mL (≈ 14.8 µM) | 3.13 µg/mL (≈ 7.41 µM) | 25 µg/mL (≈ 59.2 µM) | 6.25 µg/mL (≈ 14.8 µM) | 12.5 µg/mL (≈ 29.6 µM) | 12.5 µg/mL (≈ 29.6 µM) | 12.5 µg/mL (≈ 29.6 µM) | 12.5 µg/mL (≈ 29.6 µM) | 6.25 µg/mL (≈ 14.8 µM) | 1.56 µg/mL (≈ 3.69 µM) | 6.25 µg/mL (≈ 14.8 µM) | CC(=O)NC=C[S+]([O-])C1=C(C(=O)O)N2C(=O)C(C(C)(C)OS(=O)(=O)O)C2C1 (stereo not shown) [KA-6643-B] | I50 value [12]: 12.8 ng/mL; MIC [11]: 6.25 µg/mL (≈ 14.8 µM); MIC (Pseudomonas putida 5121): 100 µg/mL (≈ 237 µM); MIC (Proteus rettgari 13501): 50 µg/mL (≈ 118 µM); Solubility in solvent (Solubility in solvent; [17]): substantially insoluble; Solubility in solvent (Solubility in solvent; water): Readily soluble; half-life [15, 18]: 21.8 h; half-life [15, 19]: 210 h; half-life [15, 20]: 170 h; half-life ([15]; pH 7.8): 130 h; half-life [15, 21]: 7.9 h
0.05 µg/mL (≈ 0.146 µM) | 0.2 µg/mL (≈ 0.584 µM) | 0.39 µg/mL (≈ 1.14 µM) | 6.25 µg/mL (≈ 18.3 µM) | 0.78 µg/mL (≈ 2.28 µM) | 0.2 µg/mL (≈ 0.584 µM) | 0.2 µg/mL (≈ 0.584 µM) | 0.39 µg/mL (≈ 1.14 µM) | 0.05 µg/mL (≈ 0.146 µM) | 0.78 µg/mL (≈ 2.28 µM) | 0.1 µg/mL (≈ 0.292 µM) | 6.25 µg/mL (≈ 18.3 µM) | 0.78 µg/mL (≈ 2.28 µM) | 1.56 µg/mL (≈ 4.56 µM) | 0.78 µg/mL (≈ 2.28 µM) | 0.39 µg/mL (≈ 1.14 µM) | 3.13 µg/mL (≈ 9.14 µM) | 0.78 µg/mL (≈ 2.28 µM) | 0.05 µg/mL (≈ 0.146 µM) | 0.2 µg/mL (≈ 0.584 µM) | CC(=O)NC=C[S+]([O-])C1=C(C(=O)O)N2C(=O)C(C(C)(C)O)C2C1 (stereo not shown) [KA-6643-A] | I50 value [12]: 0.5 ng/mL; Diameter of inhibiting zone (Citrobacter 24 (CS ase) [13]): 16.0 mm; Diameter of inhibiting zone [14]: 18.0 mm; MIC [11]: 0.2 µg/mL (≈ 0.584 µM); MIC (Pseudomonas putida 5121): 1.56 µg/mL (≈ 4.56 µM); MIC (Proteus rettgari 13501): 1.56 µg/mL (≈ 4.56 µM); Solubility in solvent (Solubility in solvent; [17]): substantially insoluble; Solubility in solvent (Solubility in solvent; water): Readily soluble; half-life [15, 18]: 33 h; half-life [15, 19]: 144 h; half-life [15, 20]: 187 h; half-life ([15]; pH 7.8): 110 h; half-life [15, 21]: 2.8 h
